Source: ChEMBL document CHEMBL1201862, “PubChem BioAssay data set” (2004)
The source made the active and inactive calls.

Columns and labels:
[1] = target: Albumin (Bos taurus, UniProt P02769); test: Counterscreen for inhibitors of T-cell receptor (TCR)-CD3 interaction: Fluorescence-based biochemical high throughput dose response assay to identify inhibitors of T-cell receptor (TCR)-CD3 interaction using a TAMRA-labeled BSA probe.; format: functional
[2] = ADAM10 inhibitors, peptide cleavage, dose response, biochemical, QFRET (AID 743254);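 note: ADAM10 enzyme with the DM2 quenched FRET peptide as substrate; EDANS fluorescence gain as the protease cuts the substrate; inhibitor potency against ADAM10 proteolytic activity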
[3] = target: Disintegrin and metalloproteinase domain-containing protein 17 (Homo sapiens, UniProt P78536); test: ADAM17 protease inhibitors, dose response, counter-screen for ADAM10 exosite inhibitor project, biochemical, quenched FRET substrate (AID 743253)
Sequence of Disintegrin and metalloproteinase domain-containing protein 17 (P78536 whole entry, the tested form may be a part): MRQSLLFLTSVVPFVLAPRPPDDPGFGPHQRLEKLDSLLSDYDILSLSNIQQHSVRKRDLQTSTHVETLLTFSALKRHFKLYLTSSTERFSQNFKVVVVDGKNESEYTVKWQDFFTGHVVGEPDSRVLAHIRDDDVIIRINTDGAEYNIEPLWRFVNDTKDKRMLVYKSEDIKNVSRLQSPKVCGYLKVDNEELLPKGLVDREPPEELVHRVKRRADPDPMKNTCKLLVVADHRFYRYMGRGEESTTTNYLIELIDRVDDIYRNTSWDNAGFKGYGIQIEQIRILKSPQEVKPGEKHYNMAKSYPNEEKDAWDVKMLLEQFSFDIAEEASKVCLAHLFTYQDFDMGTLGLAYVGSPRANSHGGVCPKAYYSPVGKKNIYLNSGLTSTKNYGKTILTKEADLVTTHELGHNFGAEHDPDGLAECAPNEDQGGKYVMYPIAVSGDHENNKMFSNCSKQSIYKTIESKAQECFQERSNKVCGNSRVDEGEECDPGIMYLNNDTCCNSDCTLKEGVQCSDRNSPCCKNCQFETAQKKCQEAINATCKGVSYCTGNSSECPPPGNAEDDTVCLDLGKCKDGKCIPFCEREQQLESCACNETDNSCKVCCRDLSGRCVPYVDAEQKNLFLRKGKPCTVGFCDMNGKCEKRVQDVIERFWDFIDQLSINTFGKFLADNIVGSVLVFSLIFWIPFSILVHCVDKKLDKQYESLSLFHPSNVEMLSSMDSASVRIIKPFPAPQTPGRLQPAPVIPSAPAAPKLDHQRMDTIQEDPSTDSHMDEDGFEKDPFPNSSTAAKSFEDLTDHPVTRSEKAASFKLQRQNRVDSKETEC

[4] = MITF Orthogonal Assay: SK-MEL-5 CTG Assay Measured in Cell-Based System Using Plate Reader - 2084-02_Inhibitor_Dose_DryPowder_Activity_Set7.; format: functional
[5] = MITF: Counter assay: A375 proliferation Measured in Cell-Based System Using Plate Reader - 2084-03_Inhibitor_Dose_DryPowder_Activity_Set8.; format: functional; settings: A-375
[6] = TRPM1 promoter luciferase reporter signal decrease, dose response, MITF inhibitor project, cell-based, SK-MEL-5, dry powder, set 8 (AID 624430); format: functional
[7] = target: FAD-linked sulfhydryl oxidase ALR (Homo sapiens, UniProt P55789); test: inhibitors of human ALR sulfhydryl oxidase, dose response, biochemical, H2O2 detection, luminescence, cherry-pick (AID 493248)
Sequence of FAD-linked sulfhydryl oxidase ALR (P55789 whole entry): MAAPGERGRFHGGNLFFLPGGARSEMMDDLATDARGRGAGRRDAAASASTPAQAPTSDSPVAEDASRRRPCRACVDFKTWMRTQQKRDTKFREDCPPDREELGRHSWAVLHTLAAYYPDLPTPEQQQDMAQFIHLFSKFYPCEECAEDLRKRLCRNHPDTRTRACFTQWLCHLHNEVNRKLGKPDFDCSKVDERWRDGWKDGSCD

[8] = target: T1, Corticotropin-releasing factor receptor 2/Corticotropin-releasing factor-binding protein (Homo sapiens, UniProt P24387+Q13324); test: Dose Response confirmation of uHTS hits for small molecule antagonists of the CRF-binding protein and CRF-R2 receptor complex.; format: functional; settings: read-out: IC50_Mean
T1 sequence (Q13324 whole entry): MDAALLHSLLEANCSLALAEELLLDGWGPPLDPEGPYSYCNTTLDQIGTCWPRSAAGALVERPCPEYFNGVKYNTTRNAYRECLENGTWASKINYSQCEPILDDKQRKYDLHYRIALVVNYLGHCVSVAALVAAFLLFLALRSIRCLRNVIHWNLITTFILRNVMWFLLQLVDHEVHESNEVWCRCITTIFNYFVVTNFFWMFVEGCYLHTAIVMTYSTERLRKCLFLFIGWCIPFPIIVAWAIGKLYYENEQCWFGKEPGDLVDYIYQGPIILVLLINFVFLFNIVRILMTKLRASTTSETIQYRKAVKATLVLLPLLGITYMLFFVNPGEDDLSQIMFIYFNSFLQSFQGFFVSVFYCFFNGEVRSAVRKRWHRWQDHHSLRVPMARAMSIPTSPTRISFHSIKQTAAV
T1 sequence (P24387 whole entry): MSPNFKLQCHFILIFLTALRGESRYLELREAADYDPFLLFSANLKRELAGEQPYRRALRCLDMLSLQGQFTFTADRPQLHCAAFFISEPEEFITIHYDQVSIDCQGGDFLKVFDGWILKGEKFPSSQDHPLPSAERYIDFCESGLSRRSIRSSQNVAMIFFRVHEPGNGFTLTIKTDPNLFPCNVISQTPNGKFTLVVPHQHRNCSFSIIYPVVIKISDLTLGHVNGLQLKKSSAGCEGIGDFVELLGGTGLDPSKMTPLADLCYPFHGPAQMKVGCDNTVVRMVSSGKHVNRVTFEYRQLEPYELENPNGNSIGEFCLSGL

[9] = target: T1, Corticotropin-releasing factor receptor 2/Corticotropin-releasing factor-binding protein; test: activators of CRF receptor 2 with binding protein – uHTS hits, confirmation (AID 602473); format: functional; settings: read-out: EC50_Mean
[10] = target: fMet-Leu-Phe receptor (Homo sapiens, UniProt P21462); test: FPR ligands, dose response (AID 519); format: functional
Sequence of fMet-Leu-Phe receptor (P21462 whole entry): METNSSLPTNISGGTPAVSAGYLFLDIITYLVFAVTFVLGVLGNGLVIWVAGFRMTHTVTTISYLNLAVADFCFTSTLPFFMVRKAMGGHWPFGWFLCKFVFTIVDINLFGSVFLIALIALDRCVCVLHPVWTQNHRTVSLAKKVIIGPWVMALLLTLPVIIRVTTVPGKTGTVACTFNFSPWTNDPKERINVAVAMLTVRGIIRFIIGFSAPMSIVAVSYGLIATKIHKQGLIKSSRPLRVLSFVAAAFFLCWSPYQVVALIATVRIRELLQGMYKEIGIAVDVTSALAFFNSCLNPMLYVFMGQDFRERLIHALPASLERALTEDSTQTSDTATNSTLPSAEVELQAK

[11] = target: COUP transcription factor 2 (Homo sapiens, UniProt P24468); test: Luminescence-based cell-based high throughput dose response assay to identify inhibitors of COUP-TFII (NR2F2).; format: functional;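 note: HEK293 cells transiently cotransfected with COUP-TFII expression vector and reporter; luciferase reporter luminescence driven by COUP-TFII from the pX2-168 reporter plasmid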
Sequence of COUP transcription factor 2 (P24468 whole entry): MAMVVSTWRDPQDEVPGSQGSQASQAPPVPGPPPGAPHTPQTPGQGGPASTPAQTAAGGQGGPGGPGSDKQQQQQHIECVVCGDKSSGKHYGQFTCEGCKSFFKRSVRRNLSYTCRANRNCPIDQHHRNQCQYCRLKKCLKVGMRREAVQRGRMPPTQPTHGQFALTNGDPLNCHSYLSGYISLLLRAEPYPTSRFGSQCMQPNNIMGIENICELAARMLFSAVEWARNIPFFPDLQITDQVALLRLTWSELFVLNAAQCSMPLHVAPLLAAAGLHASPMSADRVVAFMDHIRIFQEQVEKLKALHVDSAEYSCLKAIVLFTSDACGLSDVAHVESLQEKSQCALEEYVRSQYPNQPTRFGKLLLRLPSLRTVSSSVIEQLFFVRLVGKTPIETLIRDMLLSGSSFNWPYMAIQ

[12] = T. cruzi growth inhibition in host cells, dose response, cell-based, plate reader, dry powder, set 2 (AID 652275); format: functional
[13] = target: Paired box protein Pax-8 (Homo sapiens, UniProt Q06710); test: inhibitors of PAX8-driven TPO luciferase reporter, dose response, RMG-I cells, cherry-pick (AID 687027); format: functional, cell-based;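 note: luciferase reporter driven by Pax8 target thyroperoxidase promoter measured by SteadyGlo luminescence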
Sequence of Paired box protein Pax-8 (Q06710 whole entry): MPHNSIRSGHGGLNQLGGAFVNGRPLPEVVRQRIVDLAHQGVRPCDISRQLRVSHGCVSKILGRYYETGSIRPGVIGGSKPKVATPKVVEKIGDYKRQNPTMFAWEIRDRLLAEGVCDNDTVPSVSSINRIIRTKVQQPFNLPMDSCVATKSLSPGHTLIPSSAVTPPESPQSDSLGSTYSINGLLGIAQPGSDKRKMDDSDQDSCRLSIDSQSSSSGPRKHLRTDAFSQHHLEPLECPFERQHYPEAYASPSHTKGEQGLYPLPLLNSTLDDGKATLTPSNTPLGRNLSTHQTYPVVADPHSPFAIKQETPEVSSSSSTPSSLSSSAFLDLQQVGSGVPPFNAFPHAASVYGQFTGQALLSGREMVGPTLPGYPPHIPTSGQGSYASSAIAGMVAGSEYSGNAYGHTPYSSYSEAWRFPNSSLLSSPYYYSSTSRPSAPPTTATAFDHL

[14] = NIH:OVCAR-3 ovarian cancer cell cytotoxicity, dose response, PAX8 inhibitor project, plate reader, dry powder samples (AID 743044); format: functional, cell-based
[15] = cytotoxicity in OVCAR8 ovarian cancer cells, dose response, PAX8 project, cell-based, plate reader, dry powder samples (AID 743197); format: functional; settings: OVCAR-8
[16] = target: Tyrosyl-DNA phosphodiesterase 2 (Homo sapiens, UniProt O95551); test: human TDP2 enzyme inhibitors, dose response, biochemical, epi absorbance, IC50 (AID 743297)
Sequence of Tyrosyl-DNA phosphodiesterase 2 (O95551 whole entry): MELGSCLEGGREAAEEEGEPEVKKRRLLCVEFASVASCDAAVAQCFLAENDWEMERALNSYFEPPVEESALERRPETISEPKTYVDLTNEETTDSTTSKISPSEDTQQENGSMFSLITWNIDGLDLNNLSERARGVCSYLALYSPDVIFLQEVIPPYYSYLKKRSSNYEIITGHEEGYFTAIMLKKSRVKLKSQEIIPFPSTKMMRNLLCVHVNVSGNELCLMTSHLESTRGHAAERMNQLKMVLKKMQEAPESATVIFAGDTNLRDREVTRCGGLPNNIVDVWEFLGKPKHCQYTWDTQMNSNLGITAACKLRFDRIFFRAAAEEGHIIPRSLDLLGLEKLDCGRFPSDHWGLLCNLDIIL

[17] = human group III sPLA2 inhibitors, dose response, biochemical, QFRET, IC50 (AID 743457);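 note: green fluorescence rise as the enzyme cleaves BODIPY PC-A2 in liposomes; potency for inhibition of the enzyme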
[18] = HEK293T cytotoxicity, dose response, cytotoxicity control for miR-122 modulator project, cell-based, inhibitor set, cherry-pick, set 2 (AID 720697); format: functional

Sequence of Albumin (P02769 whole entry): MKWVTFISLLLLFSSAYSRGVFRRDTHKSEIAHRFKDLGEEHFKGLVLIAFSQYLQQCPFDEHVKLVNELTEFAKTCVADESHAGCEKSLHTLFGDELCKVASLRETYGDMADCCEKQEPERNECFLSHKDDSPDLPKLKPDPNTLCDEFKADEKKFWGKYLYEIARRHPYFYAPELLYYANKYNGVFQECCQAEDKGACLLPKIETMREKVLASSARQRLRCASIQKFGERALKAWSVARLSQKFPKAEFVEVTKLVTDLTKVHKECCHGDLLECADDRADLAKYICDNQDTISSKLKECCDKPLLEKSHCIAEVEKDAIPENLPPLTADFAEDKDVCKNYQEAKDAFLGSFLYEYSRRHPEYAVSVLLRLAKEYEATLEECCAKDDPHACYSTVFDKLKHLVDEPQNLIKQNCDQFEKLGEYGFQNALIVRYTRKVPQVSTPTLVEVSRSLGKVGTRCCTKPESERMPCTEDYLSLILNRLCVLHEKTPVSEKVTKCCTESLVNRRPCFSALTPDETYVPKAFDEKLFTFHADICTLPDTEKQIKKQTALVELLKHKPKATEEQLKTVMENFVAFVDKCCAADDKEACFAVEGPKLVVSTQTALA

## COc1cc(/C=N/NC(=O)COc2ccc(Cl)cc2)ccc1OS(=O)(=O)c1ccc(C)cc1
[1]
  IC50: > 94.1 µM (inactive)
[2]
  IC50: > 69.5 µM (inactive)
[3]
  IC50: > 69.5 µM (inactive)

## CC1=C(Nc2ccc(Cl)cc2)C(=O)c2ccccc2C1=O
[4]
  AC50: 0.802 µM (active)
[5]
  AC50: > 70 µM (inactive)
[6]
  AC50: 40.7 µM (active)

## Cc1ccc(Nc2ccc(C(=O)O)cc2N)cc1
[7]
  AC50: 0.246 µM (active)
[8]
  IC50: > 47.1 µM (inactive)
[9]
  EC50: > 53 µM (inactive)
[10]
  Ki: > 66.7 µM (inactive)

## Cc1sc(NC(=O)CN2CCOCC2)nc1-c1ccc2c(c1)CCN2S(=O)(=O)c1ccccc1
[11]
  IC50: 8.52 µM (active)

## COc1cccc(-c2ccc([C@H]3[C@H](CO)N4CCCCN(CC5CCOCC5)C[C@@H]34)cc2)c1
[12]
  AC50: 1.88 µM (active)

## CO[C@H]1CN(C)C(=O)c2cc(NC(=O)c3ccc(-c4ccccc4)cc3)ccc2OC[C@@H](C)NC[C@@H]1C
[13]
  AC50: 22.6 µM (active)
[14]
  AC50: 44.6 µM (active)
[15]
  AC50: 58.4 µM (active)

## O=C(NC(=S)Nc1ccccc1N1CCCC1)c1ccco1
[16]
  IC50: > 128 µM (inactive)

## Cc1ccccc1NC(=O)NNC(=O)c1ccc2ccccc2c1O
[1]
  IC50: > 94.2 µM (inactive)
[17]
  IC50: > 122 µM (inactive)

## CCNC(=O)C[C@@H]1CC[C@H]2[C@H](COc3ccc(NC(=O)c4cccc(C(F)(F)F)c4)cc3C(=O)N2C)O1
[18]
  AC50: 3.05 µM (active)
